# Results: US20230105108A1, “COMPOUNDS FOR THE TREATMENT OF BACTERIAL INFECTIONS AND POTENTIATION OF ANTIBIOTICS” (GEORGIA STATE UNIVERSITY RESEARCH FOUNDATION, INC., priority 2019, published 2023)
# Where a name gives a salt, the structure may show the parent alone. Read-outs that look alike come from different tables or passages of the source.
# Experiments:
# [1] = system: A. baumannii (ATCC 17978); test: MIC, sensitization fold and FIC index on A. baumannii; format: cell-based; conditions: A. baumannii towards the antibiotic
# E. coli (ATCC 25922) = test: MIC determination, sensitization fold and FIC index on E. coli; format: cell-based; conditions: for MIC of AB with MD-124: MD-124 concentration 5 μg/ml; for MIC: Escherichia coli; for Sensitization: compound up to 25 μM; for sensitization activity: compound at up to 10 μM
# Procedure: (§1) Bacteria culture and MICs determination: Gram-negative bacteria were cultured in Mueller Hinton II cation-adjusted broth. Gram-positive bacteria were cultured in LB broth. Mycobacterium smegmatis was cultured in Middlebrook 7H9 Broth. MICs of antibiotics itself were determined by performing two-fold serial dilutions of antibiotics. MICs of antibiotics in the presence of bacterial sensitizers were determined by performing two-fold serial dilutions of antibiotics with or without a constant concentration of bacterial sensitizers. The MICs tests were performed on 96-well plates with a final volume of 200 μl Mueller Hinton II cation-adjusted broth in each well. Each well was inoculated with 5×10^5 CFU/ml bacteria and was incubated for 24 h at 37° C. with continuous shaking of 200 rpm. The bacterial density was then determined by OD600. Bacterial growth %=OD600 of antibiotic treatment group/OD600 of antibiotic non-treatment group. MICs was determined as the concentrations that inhibit more than 90% of bacteria growth.
# (§2) Sensitization fold determination and FIC index calculations: Sensitization fold=MIC of antibiotic only/MIC of antibiotic with bacterial sensitizer. […] Since the MICs were determined by performing two-fold serial dilutions of antibiotic, so the sensitization fold can is the times of 2.
# FIC index between compound a and b was calculated according to the formula below: […]
# FIC≤0.5: Synergy; FIC between 0.5 and 1: Additive; FIC between 1 and […]: no interaction; FIC >4: antagonism.
# (§3) Bacteria strains (as indicated in Table 5B) were cultured with rifampicin at various concentrations in the presence or absence of 10 μM of the indicated compound for 20 h at 37° C. The MIC, sensitization, cytotoxicity, and MIC on mycobacteria were tested according to methods described herein. […] The sensitization activities of compounds on MRSA were tested using rifampicin. The sensitization activities of compounds on E. coli were tested using rifampicin.
# [2] = system: NDM-1 expressing E. coli strain; test: microbe, parasite or virus in culture; format: cell-based; conditions: for MIC: Escherichia coli, read-out: MIC on NDM-1 over-expression E. coli
# [3] = Cytotoxicity on mammalian cells (CCK-8), HEK293; format: cell-based; conditions: human, HEK293 cells; HEK293 cell line; 24 h
# Procedure: (§4) Cytotoxicity test of bacterial sensitizers on mammalian cells. Cell viability was assessed by using Cell Counting Kit-8 (CCK-8, Dojindo, Japan). HEK293 or NIH3T3 cells were seeded in a 96-well plate one day before the experiment to reach 80% confluency. Cells were then incubated with various concentration of bacterial sensitizers at 37° C. with 5% CO2 for 24 h, then 10 μL of CCK-8 solution was added to each well, and the plate was incubated for an additional at 37° C. 2 h with 5% CO2. The optical density at 450 nm was recorded by plate reader; and the results were calculated as a percentage of viability compared with the untreated control.
# B. subtilis = test: MIC determination and sensitization fold on B. subtilis; format: cell-based; conditions: B. subtilis; for Sensitization fold / Sensitization: erythromycin; for MIC: Bacillus subtilis, 24 h, compound alone, read-out: MIC; for Sensitization: compound up to 12 μM
# [4] = Cytotoxicity on mammalian cells (CCK-8), NIH3T3; format: cell-based; conditions: mouse, NIH3T3 cells, 3T3 cell line
# Procedure: as §4
# MRSA (ATCC 33592) = test: MIC determination and sensitization fold on MRSA; format: cell-based, methicillin-resistant Staphylococcus aureus; conditions: for Sensitization fold: rifampicin; for MIC: Staphylococcus aureus, 24 h
# Procedure: Bacteria strains: E. coli (ATCC 25922), A. baumannii (ATCC 17978), K. pneumoniae (43816), S. maltophilia (ATCC 31559), S. typhimurium (ATCC 14028), C. werkmanii (ATCC 51114), S. aureus (ATCC 12600) and methicillin-resistant Staphylococcus aureus (MRSA, ATCC 33592) strains were purchased from ATCC. NR698 was provided.
# as §1, §2, §3
# HEK293 cells = test: Cytotoxicity on mammalian cells (CCK-8), HEK293; format: cell-based; conditions: HEK293 cell line; 24 h
# Procedure: as §4
# [5] = Cytotoxicity in H9c2 cells (CCK-8); format: cell-based; conditions: rat, H9c2 cells; H9c2 cell line
# Procedure: The cytotoxicity in H9c2 (ATCC®CRL-1446™) cells was also determined. The H9c2 cells were maintained in DMEM (Dulbecco's Modified Eagle's Medium) supplemented with 10% fetal bovine serum (MidSci; S01520HI) and 1% penicillin-streptomycin (Sigma-Aldrich; P4333) at 37° C. with 5% CO2. The H9c2 cells were seeded in 96-well plate one day before the experiment. Different concentrations of di-amidine compounds were added into the H9c2 cells. The cells were then incubated with the compounds for 24 hours at 37° C. with 5% CO2. The cell viability was tested by the CCK-8. Specifically, after 24 hour incubation, 10 μL CCK-8 was added to each well. After 3 hours incubation at 37° C., the absorbance at 450 nm was recorded by a plate reader.
# [6] = E. coli towards the antibiotic, MD-124 5 μg/ml
# [7] = ATCC25922, 24 h, E. coli (wild type), antibiotic alone, read-out: MIC of AB only
# [8] = NDM-1 expressing E. coli towards the antibiotic
# [9] = ATCC25922, antibiotic alone (Table 14), read-out: MIC on wild-type E.coli
# [10] = ATCC25922, 24 h, E. coli, compound alone, read-out: MIC
Compound,Sensitization fold with 5 μg/ml MD-124 [1] [fold],Sensitization fold (E. coli (ATCC 25922); [6]) [fold],MIC of AB with MD-124 (E. coli (ATCC 25922); E. coli) [µg/mL],MIC (E. coli (ATCC 25922); [7]) [µg/mL],CC50 at 24 h [3] [µM],MIC (B. subtilis) [µM],CC50 at 24 h [4] [µM],"Sensitization (E. coli (ATCC 25922); E. coli, rifampicin)",MIC (E. coli (ATCC 25922); [10]) [µM],other results
"O=C(O)c1cn(C2CC2)c2cc(N3CCNCC3)c(F)cc2c1=O [Ciprofloxacin, reference compound]",4,4,0.0125,0.05,–,–,–,–,–,–
"CN(C)[C@@H]1C(O)=C(C(N)=O)C(=O)[C@@]2(O)C(O)=C3C(=O)c4c(O)cccc4[C@@](C)(O)[C@H]3C[C@@H]12 [Tetracycline, reference compound]",2,2,0.6,1.2,–,–,–,–,–,Sensitization fold with 5 μg/ml MD-124 [2]: 4 fold
"CCOc1ccc2ccccc2c1C(=O)N[C@@H]1C(=O)N2[C@@H]1SC(C)(C)[C@@H]2C(=O)O [Nafcillin, reference compound]",2,>4,75,> 300,–,–,–,–,–,–
"C[C@@H](O)[C@H]1C(=O)N2C(C(=O)O)=C(S[C@@H]3CN[C@H](C(=O)N(C)C)C3)[C@H](C)[C@H]12 [Meropenem, reference compound]",–,1,0.063,0.063,–,–,–,–,–,"MIC ([2]; antibiotic alone (Table 14)): 12.5 µg/mL; Sensitization fold with 5 μg/ml MD-124 [2, 8]: 2 fold; MIC (E. coli (ATCC 25922); [9]): 0.03 µg/mL"
"Cc1cc(CSc2ccc(C3=NCCN3)cc2)cc(CSc2ccc(C3=NCCN3)cc2)c1 [MD-118, 1,3-Bis {(4-(2-imidazolino))-thiophenoxymethyl}-5-methylbenzene dihydrochloride]",–,–,–,–,25,> 25,12.5,No effect up to 25 μM.,> 50,"Sensitization fold (B. subtilis; compound at 3 μM): 4-fold at 3 μM; Sensitization fold (B. subtilis; compound at 6 μM): 16-fold at 6 μM,"
NC[C@H]1O[C@H](O[C@H]2[C@H](O)[C@@H](O[C@H]3O[C@H](CO)[C@@H](O)[C@H](N)[C@H]3O)[C@H](N)C[C@@H]2N)[C@H](O)[C@@H](O)[C@@H]1O [Kanamycin],2,–,–,–,–,–,–,–,–,–
"CC(C)(O/N=C(\C(=O)N[C@@H]1C(=O)N2C(C(=O)[O-])=C(C[n+]3ccccc3)CS[C@H]12)c1csc(N)n1)C(=O)O [Ceftazidime, reference compound]",–,–,–,–,–,–,–,–,–,MIC ([2]; antibiotic alone (Table 14)): > 6.25 µg/mL; MIC (E. coli (ATCC 25922); [9]): < 0.2 µg/mL
"Cc1cc(COc2cccc(C(=N)N)c2)cc(COc2cccc(C(=N)N)c2)c1 [MD-116, 3,3′-(((5-methyl-1,3-phenylene)bis(methylene))bis(oxy))dibenzimidamide dihydrochloride]",–,–,–,–,> 100,–,> 100,–,–,"Sensitization fold (B. subtilis; compound at 12 μM): 32-fold at 12 μM; Sensitization fold (MRSA (ATCC 33592); MRSA, compound at 12.5 μM): 4-fold at 12.5 μM.; Sensitization fold (E. coli (ATCC 25922); E. coli, rifampicin, compound at 25 μM): 8-fold at 25 μM; MIC (E. coli (ATCC 25922); ATCC25922, 24 h): 100 µM"
"COc1cc(C(=N)N)ccc1OCc1cc(COc2ccc(C(=N)N)cc2OC)cc(C(C)(C)C)c1 [MD-114, 1,3-Bis {[4-amidino-2-methoxy)-phenoxymethyl]}-5-(tert-butyl)benzene dihydrochloride]",–,–,–,–,–,25,50,–,100,"CC50 (HEK293 cells): 100 µM; Sensitization fold (B. subtilis; compound at 12 μM): 8-fold at 12 μM; Sensitization fold (E. coli (ATCC 25922); E. coli, rifampicin, compound at 12.5 μM): 8-fold at 12.5 μM"
"CC(C)NC(=N)c1ccc(OCc2cccc(COc3ccc(C(=N)NC(C)C)cc3)c2F)cc1 [MD-110, 1,3-Bis{(4-isopropylamidino)-phenoxymethyl}-2-fluorobenzene dihydrochloride]",–,–,–,–,> 100,25,> 100,No effect up to 25 μM.,25,"Sensitization fold (B. subtilis; compound at 6 μM): No effect at 6 μM.; Sensitization fold (MRSA (ATCC 33592); MRSA, compound at 4 μM): 16-fold at 4 μM."
"Cc1cc(COc2ccc(C3=NCCCN3)cc2)cc(COc2ccc(C3=NCCCN3)cc2)c1 [MD-113, 2,2′-((((5-methyl-1,3-phenylene)bis(methylene))bis(oxy))bis(4,1-phenylene))bis(1,4,5,6-tetrahydropyrimidine) dihydrochloride]",–,–,–,–,> 100,50,> 100,No effect up to 25 μM.,–,"Sensitization (B. subtilis): No effect up to 12 μM.; Sensitization fold (MRSA (ATCC 33592); MRSA, compound at 12 μM): 4-fold at 12 μM.; Sensitization fold (MRSA (ATCC 33592); MRSA, compound at 25 μM): 8-fold at 25 μM,; MIC (MRSA (ATCC 33592)): > 50 µM; MIC (E. coli (ATCC 25922); ATCC25922, 24 h): > 100 µM; sensitization activity (E. coli (ATCC 25922); rifampicin): no sensitization activity"
"COc1cc(Cc2cnc(N)nc2N)cc(OC)c1OC [Trimethoprim, reference compound]",2,2,1.25,2.5,–,–,–,–,–,–
"CC(C)NC(=N)c1ccc(OCc2cccc(COc3ccc(C(=N)NC(C)C)cc3F)c2F)c(F)c1 [MD-111, 1,3-Bis {(4-isopropylamidino-2-fluoro)-phenoxymethyl}-2-fluorobenzene dihydrochloride]",–,–,–,–,> 100,25,> 100,No effect up to 25 μM.,50,"Sensitization (B. subtilis): No effect up to 12 μM.; Sensitization fold (MRSA (ATCC 33592); MRSA, compound at 6 μM): 8 -fold at 6 μM.; Sensitization fold (MRSA (ATCC 33592); MRSA, compound at 12 μM): 16-fold at 12 μM,; MIC (MRSA (ATCC 33592); MRSA, compound alone, read-out: MIC): 50 µM"
"Cc1cc(COc2ccc(C3=NCCN3)cc2)cc(COc2ccc(C3=NCCN3)cc2)c1 [MD-129, 1,3-Bis {(4-(2-imidazolino))-phenoxymethyl}-5-methylbenzene dihydrochloride]",–,–,–,–,50,> 50,25,No effect up to 25 μM,> 50,"Sensitization fold (B. subtilis; compound at 12 μM): 4-fold at 12 μM; Sensitization fold (E. coli (ATCC 25922); 10 μM compound, rifampicin as the antibiotic (Table 6)): 1 fold; sensitization activity (E. coli (ATCC 25922); rifampicin): no sensitization activity; CC50 at 24 h [5]: 25 µM"
CC1(C)S[C@@H]2[C@H](NC(=O)[C@H](N)c3ccccc3)C(=O)N2[C@H]1C(=O)O [Ampicillin],–,–,–,–,–,–,–,–,–,"MIC of AB with 5 μg/ml MD-124 ([2]; NDM-1 expressing E. coli): 300 µg/mL; Sensitization fold with 5 μg/ml MD-124 [2, 8]: >1 fold; MFC of AB only ([2]; NDM-1 expressing E. coli, antibiotic alone): >300 µg/mL; MIC on NDM-1 over-expression E. coli ([2]; antibiotic alone (Table 14)): >300 µg/mL; MIC on wild-type E.coli (E. coli (ATCC 25922); antibiotic alone (Table 14)): 6 µg/mL"
